Tests used:
[1] = wn = mass fraction of the nth substance listed; settings: 101 kPa, w1 = 0.561; for viscosity: Capillary tube (Ostwald / Ubbelohde) method; for mass density: Vibrating tube method
[2] = molar heat capacity at constant pressure; wn = mass fraction of the nth substance listed; settings: 101 kPa, w1 = 0.561

O=[N+]([O-])[O-].[Li+] [lithium nitrate] + O
Settings	mass density [kg/m3]	molar heat capacity at constant pressure [J/K/mol]	thermal conductivity [W/m/K]	viscosity [mPa·s]
[1], 253.2 K, Crystal of intercomponent compound 1, Hot disk method	–	–	0.76	–
[1], 263.2 K, Crystal of intercomponent compound 1, Hot disk method	–	–	0.74	–
[1], 273.2 K, Crystal of intercomponent compound 1, Hot disk method	–	–	0.77	–
[1], 283.2 K, Crystal of intercomponent compound 1, Hot disk method	–	–	0.76	–
[1], 293.2 K, Crystal of intercomponent compound 1, Hot disk method	–	–	0.75	–
[1], 294.2 K, Crystal of intercomponent compound 1, Hot disk method	–	–	0.82	–
[1], 308.2 K, Liquid	1425	–	–	5.34
[1], 313.2 K, Liquid	1420	–	–	4.8
[1], 318.2 K, Liquid	1413	–	–	4.37
[1], 323.2 K, Liquid	1408	–	–	3.96
[1], 328.2 K, Liquid	1402	–	–	3.6
[1], 333.2 K, Liquid	1395	–	–	3.31
[1], 338.2 K, Liquid	1390	–	–	3.06
[1], 343.2 K, Liquid	1384	–	–	2.84
[1], 348.2 K, Liquid	1378	–	–	2.63
[1], 353.2 K, Liquid	1372	–	–	2.46
[2], 253.2 K, Crystal of intercomponent compound 1, Small sample (50 mg) DSC	–	48.92	–	–
[2], 263.2 K, Crystal of intercomponent compound 1, Small sample (50 mg) DSC	–	50.15	–	–
[2], 273.2 K, Crystal of intercomponent compound 1, Small sample (50 mg) DSC	–	51.38	–	–
[2], 283.2 K, Crystal of intercomponent compound 1, Small sample (50 mg) DSC	–	52.61	–	–
[2], 288.2 K, Crystal of intercomponent compound 1, Small sample (50 mg) DSC	–	53.22	–	–

Liquid
Settings	molar heat capacity at constant pressure [J/K/mol]	thermal conductivity [W/m/K]
[1], 308.2 K, hot wire	–	0.584
[1], 313.2 K, hot wire	–	0.581
[1], 318.2 K, hot wire	–	0.587
[1], 323.2 K, hot wire	–	0.583
[1], 328.2 K, hot wire	–	0.585
[1], 333.2 K, hot wire	–	0.588
[1], 338.2 K, hot wire	–	0.588
[1], 343.2 K, hot wire	–	0.588
[1], 348.2 K, hot wire	–	0.595
[1], 353.2 K, hot wire	–	0.611
[2], 308.2 K, hot wire method	89.52	–
[2], 313.2 K, Small sample (50 mg) DSC	84.91	–
[2], 313.2 K, hot wire method	89.52	–
[2], 318.2 K, hot wire method	90.45	–
[2], 323.2 K, Small sample (50 mg) DSC	85.22	–
[2], 323.2 K, hot wire method	90.45	–
[2], 328.2 K, hot wire method	91.06	–
[2], 333.2 K, Small sample (50 mg) DSC	84.91	–
[2], 333.2 K, hot wire method	91.68	–
[2], 338.2 K, hot wire method	91.99	–
[2], 343.2 K, Small sample (50 mg) DSC	85.22	–
[2], 343.2 K, hot wire method	92.29	–
[2], 348.2 K, hot wire method	93.22	–
[2], 353.2 K, Small sample (50 mg) DSC	84.91	–
[2], 353.2 K, hot wire method	94.45	–
